Reference: US10301286B2, “Piperazine derivative” (Astellas Pharma Inc., priority 2015, dated 2019)
Structures can show the parent of a compound that is named as a salt.

Assays:
[1] = system: Male Sprague Dawley (SD) rats; experiment: Action on drug-induced voiding dysfunction model rat; type: in vivo; settings: po, administered into the stomach, atropine sulfate + midodrine hydrochloride model, inhibition of decrease in voiding efficiency or increase of residual urine, P<0.05, read-out: Minimum effective dose
Text: Male Sprague Dawley (SD) rats (Japan SLC, Inc.) were anesthetized with isoflurane and a cannula was placed in bladder, the stomach, and the jugular vein. Then, the rats were awakened in a Ballman cage (Natsume Seisakusho Co., Ltd.). After a post-operative stabilization period, physiological saline was continuously infused into the bladder by an infusion pump (Terumo Corporation, product number: TE-331S) to induce voiding. Infusion of the physiological saline was stopped at the time of voiding, and the amount of the voided urine was measured using an electronic top-loading balance placed under the Ballman cage. After completion of voiding, the residual urine was collected by gravity through the cannula placed in the bladder, and weighed, and the weight was defined as the amount of the residual urine. Further, the intravesical pressure was measured by a pressure transducer (Nihon Kohden Corporation, product numbers: TP-400, TDX-100) through the bladder cannula. The test compound or the vehicle was administered into the stomach, and atropine sulfate (Sigma-Aldrich, Inc., 0.01 mg/kg), which is an anticholinergic drug, and midodrine hydrochloride (Sigma-Aldrich, Inc., 0.3 mg/kg), which is an α1 adrenergic receptor stimulant, were administered intravenously to induce voiding dysfunctions. The voiding efficiency (=[voided amount/(voided amount+amount of residual urine)]×100) and the amount of the residual urine before and after administration of the test compound or the vehicle were measured, and the amount changed was evaluated. The value with vehicle administration and the value with the test compound administration were compared in a Dunnett's multiple comparison test with a statistically significant difference (P<0.05), and the minimum dose at which the inhibitory effect on a decrease in voiding efficiency or an increase of the amount of residual urine had been observed was defined as a minimal effective dose (3 to 12 animals per group).

Male Wistar rats = experiment: Action on rat urethral pressure (phenylephrine-induced increase); type: in vivo; settings: anesthetized rats, intravenous, dose giving 40% inhibition of phenylephrine-induced urethral pressure ΔAUC, read-out: ID40
Method: The present Test Example was carried out by partially modifying the technique reported as a testing system for evaluating an urethral resistance-reducing action (European Journal of Pharmacology, 679, 127-131 (2012)). Male Wistar rats (Charles River Laboratories Japan, Inc.) were anesthetized with urethane (1.2 g/kg ip), and placed in a supine position. The lower abdominal portion was midline-incised, and thus, the bladder was exposed. The bladder apex was incised, a microchip pressure transducer catheter (3.5 Fr, Millar) was inserted into the inside of the urethra, and then placed therein. In addition, a cannula for administration of a drug was placed into the femoral vein. After stabilization of the urethral pressure, phenylephrine hydrochloride (Sigma-Aldrich, 30 μg/kg) was administered intravenously to induce an increase in the urethral pressure. At an interval of about 30 minutes, this operation was repeated twice or more to confirm the stability of the reaction of a phenylephrine hydrochloride-induced increase in the urethral pressure. Thereafter, a test compound (dissolved in 20% dimethyl acetamide, 10% Cremophor (registered trademark) and 70% physiological saline) was intravenously administered, and then 5 minutes later, phenylephrine hydrochloride was administered. The procedure of administration of the test compound and administration of phenylephrine hydrochloride was repeated at an interval of about 30 minutes, and 3 to 5 doses of the test compound was evaluated (the test compound was administered at increasing doses). The data of reaction was introduced into a personal computer through PowerLab (registered trademark) (ADInstruments, Inc.), and analyzed with LabChart (registered trademark) (ADInstruments, Inc.). For the evaluation, the value of the area under the urethral pressure (mmHg·s) for one minute before and after administration of phenylephrine hydrochloride was determined to calculate the difference between before and after administration of phenylephrine hydrochloride (ΔAUC value). By taking the ΔAUC value obtained before administering the test compound as 100%, the ratio (reaction rate) of the ΔAUC value of the test compound at each dose was calculated. The rate at which the obtained reaction rate becomes 60% (40% as an inhibition rate) was defined as ID40, and the ID40 values of the test compounds were calculated by non-linear regression.

human MC3 receptor = human MC3 receptor (Homo sapiens (Human), UniProt P41968); experiment: Human MC receptor activation, cAMP production in cells expressing human MC3 receptor; type: cell-based; settings: FreeStyle 293-F cells transiently expressing human MC3 receptor, α-MSH maximum = 100%
Chain of human MC3 receptor (P41968 whole entry): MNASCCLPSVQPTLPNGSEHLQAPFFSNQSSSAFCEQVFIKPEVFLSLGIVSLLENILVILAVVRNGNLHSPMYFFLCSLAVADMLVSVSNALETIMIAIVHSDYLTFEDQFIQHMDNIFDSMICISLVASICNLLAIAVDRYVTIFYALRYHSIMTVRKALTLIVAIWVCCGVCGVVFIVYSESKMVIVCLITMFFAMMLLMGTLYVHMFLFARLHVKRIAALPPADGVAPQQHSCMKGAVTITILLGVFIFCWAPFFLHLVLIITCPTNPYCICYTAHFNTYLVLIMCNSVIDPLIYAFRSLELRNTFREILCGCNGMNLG
Text: (1) Construction of Human MC Receptor-Expressing Vector
A human MC4 receptor gene (GenBank Accession No.: NM_005912.2), a human MC1 receptor gene (GenBank Accession No.: NM_002386.3), or a human MC3 receptor gene (GenBank Accession No.: NM_019888.3) was introduced into an expression vector pcDNA™ 3.1/V5-His TOPO (registered trademark) (Thermo Fisher Scientific Inc.).
(2) Construction of Cells Transiently Expressing Human MC Receptor
An expression vector for a human MC4, MC1, or MC3 receptor was introduced into FreeStyle™ 293-F cell (Thermo Fisher Scientific Inc., product number: R790-07). For the introduction, electroporation was employed. That is, 1×10^7 FreeStyle™ 293-F cell were suspended in 80 μL of an electroporation buffer (Thermo Fisher Scientific Inc., product number: B201-100), and 20 μg of the expression vector was added thereto. The resultant was put into a cuvette (OC-100 Processing Assembly, MaxCyte, Inc.) and electroporated with MaxCyte SIX (registered trademark) (MaxCyte, Inc.). The cells were cultured over one day, suspended in a Cell Banker (registered trademark) 1 (JUJI FIELD Inc.), product number: BLC-1), and stored frozen until their use.
(3) Measurement of Amount of cAMP Produced
Measurement was carried out by using a LANCE (registered trademark) Ultra cAMP Kit (PerkinElmer, Inc.) in accordance with the attached instructions. That is, after dissolution in DMSO, the test compound (a final concentration of 1 pM to 30 μM) diluted with an assay buffer (Hank's balanced salt solution, 5 mM 4-(2-hydroxyethyl)-1-piperazineethanesulfonic acid (HEPES), 0.5 mM 3-isobutyl-1-methylxanthine (IBMX), 0.1% bovine serum albumin, pH 7.4), or α-MSH (Bachem Inc., a final concentration of 1 pM to 30 μM) was added to OptiPlate-384 (PerkinElmer, Inc.). Furthermore, a suspension of cells transiently expressing the human MC4, MC1, or MC3 receptor prepared by using the assay buffer was added thereto at 1,000 cells/well, followed by being left to stand at room temperature for about 1 hour. Thereafter, an Eu-cAMP tracer solution and an ULight™-anti-cAMP solution were added thereto, followed by being left to stand at room temperature for about 1 hour. The amount of cAMP was calculated using EnVision (registered trademark) (PerkinElmer Inc.).
For the agonistic activity, an efficacy (EC50 (μM)) was calculated by a non-linear regression method with a Sigmoid-Emax model, by defining the maximum reaction with α-MSH as 100% and the reaction with the vehicle alone as 0%, respectively.

SMILES	EC50 (human MC3 receptor)	minimal effective dose [1]	ED40 (Male Wistar rats)
Cc1ccc(C[C@@H](C(=O)O)N2CCN(C(=O)[C@@H]3CN(C4CCOCC4)C[C@H]3c3ccc(Cl)cc3F)[C@@H](C)C2)c(F)c1 [Example 87, (2S)-2-[(3S)-4-{[(3S,4R)-4-(4-chloro-2-fluorophenyl)-1-(tetrahydro-2H-pyran-4-yl)pyrrolidin-3-yl]carbonyl}-3-methylpiperazin-1-yl]-3-(2-fluoro-4-methylphenyl)propanoic acid dihydrochloride]	0.92 µM	0.1 mg/kg	0.04 mg/kg
Cc1cc(F)c(C[C@@H](C(=O)O)N2CCN(C(=O)[C@@H]3CN(C(C)(C)C)C[C@H]3c3ccc(Cl)cc3F)[C@@H](C)C2)c(F)c1 [Example 76]	0.33 µM	0.03 mg/kg	0.0047 mg/kg
Cc1cc(C)c(C[C@@H](C(=O)O)N2CCN(C(=O)[C@@H]3CN(C(C)(C)C)C[C@H]3c3ccc(Cl)cc3F)[C@@H](C)C2)c(C)c1 [Example 89]	0.78 µM	0.1 mg/kg	0.024 mg/kg
Cc1cc(C)c(C[C@@H](C(=O)O)N2CCN(C(=O)[C@@H]3CN(C4CCOCC4)C[C@H]3c3ccc(Cl)cc3F)[C@@H](C)C2)c(F)c1 [Example 88]	0.88 µM	0.1 mg/kg	0.04 mg/kg

The next lines start with results.

EC50 (human MC3 receptor)	SMILES	minimal effective dose [1]	ED40 (Male Wistar rats)
0.91 µM	CCC[C@H]1CN([C@@H](Cc2ccc3ccccc3c2)C(=O)O)CCN1C(=O)[C@@H]1CN(C(C)(C)C)C[C@H]1c1ccc(F)cc1F [Example 9]	3 mg/kg	0.047 mg/kg
4.2 µM	C[C@H]1CN([C@@H](Cc2ccc3c(c2)CCC3)C(=O)O)CCN1C(=O)[C@@H]1CN(C(C)(C)C)C[C@H]1c1ccc(F)cc1F [Example 5, (2S)-2-[(3S)-4-{[(3S,4R)-1-tert-butyl-4-(2,4-difluorophenyl)pyrrolidin-3-yl]carbonyl}-3-methylpiperazin-1-yl]-3-(2,3-dihydro-1H-inden-5-yl)propanoic acid dihydrochloride]	0.3 mg/kg	0.13 mg/kg
3.7 µM	Cc1ccc(C[C@@H](C(=O)O)N2CCN(C(=O)[C@@H]3CN(C(C)(C)C)C[C@H]3c3ccc(Cl)cc3F)[C@@H](C)C2)cc1 [Example 11]	0.3 mg/kg	0.088 mg/kg
0.18 µM	Cc1ccc(C[C@@H](C(=O)O)N2CCN(C(=O)[C@@H]3CN(C(C)(C)C)C[C@H]3c3ccc(Cl)cc3F)[C@@H](C)C2)c(F)c1 [Example 4, (2S)-2-[(3S)-4-{[(3S,4R)-1-tert-butyl-4-(4-chloro-2-fluorophenyl)pyrrolidin-3-yl]carbonyl}-3-methylpiperazin-1-yl]-3-(2-fluoro-4-methylphenyl)propanoic acid dihydrochloride]	0.03 mg/kg	0.0094 mg/kg
